Test results taken from patent publication US20070254035A1, “Preparing Active Polymer Extrudates” (priority 2003, published 2007).

Columns and labels:
lysozyme = assay: Standard activity assay of lysozyme liberated from the CO2-processed polymer extrudate; assay type: biochemical; settings: Example 6: poly(D,L-lactic acid) MW 71,000 : enzyme ca. 20:1 w/w, CO2 ca. 35° C., 300 bar; compared to lysozyme that has not undergone processing
Experimental: (§1) Poly(D,L-lactic acid) (MW 71,000) and lysozyme enzyme powder are added to a high pressure autoclave at a defined ratio (ca. 20:1 weight for weight). The autoclave is charged with carbon dioxide at a defined temperature and pressure (ca. 35° C., 300 bar) sufficient to ensure plasticization of the polymer by carbon dioxide and the contents are mixed together. Discharging of the contents into a second autoclave at atmospheric pressure, through a longer angled nozzle, yields a solid fibrous-mesh product, containing lysozyme, of similar morphology to Example 1. Upon liberation from the polymer the biological activity of lysozyme is unaffected by the carbon dioxide processing compared to lysozyme that has not undergone processing. Standard activity assays described in the literature are used to determine the lysozyme activity.

ribonuclease = assay: Standard activity assay of ribonuclease liberated from the CO2-processed polymer extrudate; assay type: biochemical; settings: Example 5: poly(D,L-lactic acid) MW 71,000 : enzyme ca. 20:1 w/w, CO2 ca. 35° C., 300 bar; compared to ribonuclease that has not undergone processing
Experimental: as §1, with “ribonuclease” for “lysozyme”, “ribonuclease,” for “lysozyme,”

Row | Substance | biological activity of lysozyme upon liberation from the polymer (lysozyme) | biological activity of ribonuclease upon liberation from the polymer (ribonuclease)
1 | lysozyme | unaffected | –
2 | ribonuclease | – | unaffected
